Results from PubChem BioAssay AID1745844 (Carcinogenic Potency Database (CPDB), 2022).
Active and inactive are the calls of the source. No rule for the calls is given here.

Tested on: rodent lifetime carcinogenesis bioassay, tumor incidence TD50
Experiment: carcinogenic potency in animals, long-term in vivo studies, CPDB compilation (AID 1745844)

Cc1cccc(C)c1
TD50 (mouse, strain B6C3F1, females, by gavage, site: liver, lesion: hepatocellular adenoma + hepatocellular carcinoma + neoplastic nodule, dosed 103 weeks, study length 104 weeks): 7040 mg/kg/day | TD50 (mouse, strain B6C3F1, females, by gavage, site: lung, lesion: alveolar/bronchiolar adenoma + alveolar/bronchiolar carcinoma, dosed 103 weeks, study length 104 weeks): 5130 mg/kg/day | TD50 (mouse, strain B6C3F1, females, by gavage, site: thyroid gland, lesion: follicular-cell adenoma, dosed 103 weeks, study length 104 weeks): 4790 mg/kg/day (inactive) | carcinogen call (mouse, strain B6C3F1, males, by gavage, site: any site (literature study), lesion: several types, types named in the paper, dosed 103 weeks, study length 104 weeks): negative (inactive) | TD50 (mouse, strain B6C3F1, males, by gavage, site: lung, lesion: alveolar/bronchiolar adenoma + alveolar/bronchiolar carcinoma, dosed 103 weeks, study length 104 weeks): 7600 mg/kg/day | TD50 (rat, strain Fischer 344, females, by gavage, site: any site (literature study), lesion: several types, types named in the paper, dosed 103 weeks, study length 104 weeks): 1930 mg/kg/day | TD50 (rat, strain Fischer 344, females, by gavage, site: liver, lesion: hepatocellular adenoma + hepatocellular carcinoma + neoplastic nodule, dosed 103 weeks, study length 104 weeks): 51300 mg/kg/day | TD50 (rat, strain Fischer 344, females, by gavage, site: mammary gland, lesion: adenoma, NOS, dosed 103 weeks, study length 104 weeks): 4110 mg/kg/day (inactive) | TD50 (rat, strain Fischer 344, males, by gavage, site: any site (literature study), lesion: several types, types named in the paper, dosed 103 weeks, study length 104 weeks): 700 mg/kg/day (inactive) | TD50 (rat, strain Sprague-Dawley, females, by gavage, site: all sites, lesion: lymphoma and leukemia, combined, dosed 104 weeks, study length 123 weeks): 4170 mg/kg/day | TD50 (rat, strain Sprague-Dawley, females, by gavage, site: all sites, lesion: lymphoma and leukemia, combined, dosed 104 weeks, study length 141 weeks): 5170 mg/kg/day | TD50 (rat, strain Sprague-Dawley, females, by gavage, site: any site (literature study), lesion: malignant tumor, dosed 104 weeks, study length 123 weeks): 1870 mg/kg/day | TD50 (rat, strain Sprague-Dawley, females, by gavage, site: any site (literature study), lesion: malignant tumor, dosed 104 weeks, study length 141 weeks): 524 mg/kg/day | TD50 (rat, strain Sprague-Dawley, females, by gavage, site: any site (literature study), lesion: several types, types named in the paper, dosed 104 weeks, study length 141 weeks): 304 mg/kg/day | TD50 (rat, strain Sprague-Dawley, females, by gavage, site: ear duct, lesion: carcinoma, dosed 104 weeks, study length 123 weeks): 18000 mg/kg/day | TD50 (rat, strain Sprague-Dawley, females, by gavage, site: head, lesion: carcinoma, dosed 104 weeks, study length 123 weeks): 5620 mg/kg/day | TD50 (rat, strain Sprague-Dawley, females, by gavage, site: head, lesion: carcinoma, dosed 104 weeks, study length 141 weeks): 2830 mg/kg/day | TD50 (rat, strain Sprague-Dawley, females, by gavage, site: mammary tissue, wider than the gland, lesion: carcinoma, dosed 104 weeks, study length 141 weeks): 1750 mg/kg/day | TD50 (rat, strain Sprague-Dawley, females, by gavage, site: oral cavity, lesion: carcinoma, dosed 104 weeks, study length 123 weeks): 5860 mg/kg/day | TD50 (rat, strain Sprague-Dawley, males, by gavage, site: Zymbal's gland, lesion: carcinoma, dosed 104 weeks, study length 141 weeks): 58400 mg/kg/day | TD50 (rat, strain Sprague-Dawley, males, by gavage, site: all sites, lesion: lymphoma and leukemia, combined, dosed 104 weeks, study length 123 weeks): 8150 mg/kg/day | TD50 (rat, strain Sprague-Dawley, males, by gavage, site: all sites, lesion: lymphoma and leukemia, combined, dosed 104 weeks, study length 141 weeks): 4170 mg/kg/day | TD50 (rat, strain Sprague-Dawley, males, by gavage, site: any site (literature study), lesion: malignant tumor, dosed 104 weeks, study length 123 weeks): 1820 mg/kg/day | TD50 (rat, strain Sprague-Dawley, males, by gavage, site: any site (literature study), lesion: malignant tumor, dosed 104 weeks, study length 141 weeks): 1670 mg/kg/day | TD50 (rat, strain Sprague-Dawley, males, by gavage, site: any site (literature study), lesion: several types, types named in the paper, dosed 104 weeks, study length 123 weeks): 4070 mg/kg/day | TD50 (rat, strain Sprague-Dawley, males, by gavage, site: ear duct, lesion: carcinoma, dosed 104 weeks, study length 123 weeks): 18300 mg/kg/day | TD50 (rat, strain Sprague-Dawley, males, by gavage, site: head, lesion: carcinoma, dosed 104 weeks, study length 123 weeks): 3440 mg/kg/day | TD50 (rat, strain Sprague-Dawley, males, by gavage, site: head, lesion: carcinoma, dosed 104 weeks, study length 141 weeks): 5170 mg/kg/day | TD50 (rat, strain Sprague-Dawley, males, by gavage, site: oral cavity, lesion: carcinoma, dosed 104 weeks, study length 123 weeks): 4440 mg/kg/day | TD50 (rat, strain Sprague-Dawley, males, by gavage, site: oral cavity, lesion: carcinoma, dosed 104 weeks, study length 141 weeks): 5820 mg/kg/day

OC[C@H]1O[C@@H]2O[C@H]3[C@H](O)[C@@H](O)[C@@H](O[C@H]4[C@H](O)[C@@H](O)[C@@H](O[C@H]5[C@H](O)[C@@H](O)[C@@H](O[C@H]6[C@H](O)[C@@H](O)[C@@H](O[C@H]7[C@H](O)[C@@H](O)[C@@H](O[C@H]8[C@H](O)[C@@H](O)[C@@H](O[C@H]1[C@H](O)[C@H]2O)O[C@@H]8CO)O[C@@H]7CO)O[C@@H]6CO)O[C@@H]5CO)O[C@@H]4CO)O[C@@H]3CO
carcinogen call (mouse, strain Charles River CD1, females, in feed, site: lung, lesion: several types, types named in the paper, dosed 104 weeks, study length 104 weeks): negative (inactive) | TD50 (mouse, strain Charles River CD1, males, in feed, site: lung, lesion: several types, types named in the paper, dosed 93 weeks, study length 93 weeks): 728 mg/kg/day (inactive) | carcinogen call (rat, strain Charles River CD (Sprague-Dawley), females, in feed, site: liver, lesion: one or several types, types not named, dosed 52 weeks, study length 52 weeks): negative (inactive) | carcinogen call (rat, strain Charles River CD (Sprague-Dawley), males, in feed, site: liver, lesion: one or several types, types not named, dosed 52 weeks, study length 52 weeks): negative (inactive) | TD50 (rat, strain F344/DuCrj, females, in feed, site: any site (literature study), lesion: several types, types named in the paper, dosed 104 weeks, study length 109 weeks): 85900 mg/kg/day (inactive) | carcinogen call (rat, strain F344/DuCrj, females, in feed, site: liver, lesion: hepatocellular adenoma, dosed 104 weeks, study length 109 weeks): negative (inactive) | carcinogen call (rat, strain F344/DuCrj, males, in feed, site: any site (literature study), lesion: several types, types named in the paper, dosed 104 weeks, study length 109 weeks): negative (inactive) | carcinogen call (rat, strain F344/DuCrj, males, in feed, site: liver, lesion: hepatocellular adenoma, dosed 104 weeks, study length 109 weeks): negative (inactive) | TD50 (rat, strain Fischer 344, females, in feed, site: uterus, lesion: adenocarcinoma, dosed 129 weeks, study length 129 weeks): 22700 mg/kg/day (inactive) | TD50 (rat, strain Fischer 344, males, in feed, site: testis, lesion: interstitial-cell tumor, dosed 122 weeks, study length 122 weeks): 157 mg/kg/day (inactive)

Cn1nc(CO)nc1NCCCOc1cccc(CN2CCCCC2)c1
TD50 (rat, strain Charles River CD (Sprague-Dawley), females, in feed, site: stomach, glandular, fundic region, lesion: carcinoid tumor, malignant, dosed 115 weeks, study length 115 weeks): 272 mg/kg/day | TD50 (rat, strain Charles River CD (Sprague-Dawley), males, in feed, site: stomach, glandular, fundic region, lesion: carcinoid tumor, malignant, dosed 115 weeks, study length 115 weeks): 2010 mg/kg/day

CC1=C(C(=O)OCCN(Cc2ccccc2)c2ccccc2)C(c2cccc([N+](=O)[O-])c2)C(P2(=O)OCC(C)(C)CO2)=C(C)N1 (stereo not drawn)
carcinogen call (mouse, strain B6C3F1, females, in feed, site: any site (literature study), lesion: several types, types named in the paper, dosed 104 weeks, study length 104 weeks): negative (inactive) | TD50 (mouse, strain B6C3F1, females, in feed, site: liver, lesion: hepatocellular adenoma, dosed 104 weeks, study length 104 weeks): 11500 mg/kg/day (inactive) | TD50 (mouse, strain B6C3F1, females, in feed, site: liver, lesion: hepatocellular carcinoma, dosed 104 weeks, study length 104 weeks): 7430 mg/kg/day (inactive) | carcinogen call (mouse, strain B6C3F1, females, in feed, site: lung, lesion: alveolar/bronchiolar adenoma, dosed 104 weeks, study length 104 weeks): negative (inactive) | TD50 (mouse, strain B6C3F1, females, in feed, site: lung, lesion: alveolar/bronchiolar carcinoma, dosed 104 weeks, study length 104 weeks): 12300 mg/kg/day (inactive) | TD50 (mouse, strain B6C3F1, females, in feed, site: lymph node, lesion: malignant lymphoma, dosed 104 weeks, study length 104 weeks): 276 mg/kg/day (inactive) | carcinogen call (mouse, strain B6C3F1, males, in feed, site: any site (literature study), lesion: several types, types named in the paper, dosed 104 weeks, study length 104 weeks): negative (inactive) | carcinogen call (mouse, strain B6C3F1, males, in feed, site: liver, lesion: hepatocellular adenoma, dosed 104 weeks, study length 104 weeks): negative (inactive) | carcinogen call (mouse, strain B6C3F1, males, in feed, site: liver, lesion: hepatocellular carcinoma, dosed 104 weeks, study length 104 weeks): negative (inactive) | carcinogen call (mouse, strain B6C3F1, males, in feed, site: lung, lesion: alveolar/bronchiolar adenoma, dosed 104 weeks, study length 104 weeks): negative (inactive) | carcinogen call (mouse, strain B6C3F1, males, in feed, site: lung, lesion: alveolar/bronchiolar carcinoma, dosed 104 weeks, study length 104 weeks): negative (inactive) | TD50 (rat, strain F344/DuCrj, females, in feed, site: any site (literature study), lesion: several types, types named in the paper, dosed 104 weeks, study length 104 weeks): 244 mg/kg/day (inactive) | carcinogen call (rat, strain F344/DuCrj, females, in feed, site: liver, lesion: hepatocellular adenoma, dosed 104 weeks, study length 104 weeks): negative (inactive) | carcinogen call (rat, strain F344/DuCrj, males, in feed, site: any site (literature study), lesion: several types, types named in the paper, dosed 104 weeks, study length 104 weeks): negative (inactive) | TD50 (rat, strain F344/DuCrj, males, in feed, site: liver, lesion: several types, types named in the paper, dosed 104 weeks, study length 104 weeks): 2310 mg/kg/day (inactive)

CCCCNC(=O)NS(=O)(=O)c1ccc(C)cc1
TD50 (mouse, strain B6C3F1, females, in feed, site: any site (literature study), lesion: several types, types named in the paper, dosed 78 weeks, study length 103 weeks): 24200 mg/kg/day (inactive) | carcinogen call (mouse, strain B6C3F1, males, in feed, site: any site (literature study), lesion: several types, types named in the paper, dosed 78 weeks, study length 102 weeks): negative (inactive) | carcinogen call (rat, strain Fischer 344, females, in feed, site: any site (literature study), lesion: several types, types named in the paper, dosed 78 weeks, study length 106 weeks): negative (inactive) | carcinogen call (rat, strain Fischer 344, males, in feed, site: any site (literature study), lesion: several types, types named in the paper, dosed 78 weeks, study length 106 weeks): negative (inactive)

NCCS(=O)(=O)O
carcinogen call (rat, strain Wistar, females, in feed, site: mammary gland, lesion: fibroadenoma, dosed 78 weeks, study length 78 weeks): negative (inactive) | carcinogen call (rat, strain Wistar, males, in feed, site: mammary gland, lesion: fibroadenoma, dosed 78 weeks, study length 78 weeks): negative (inactive)

CC(=O)NCc1nc(-c2ccc([N+](=O)[O-])o2)no1
TD50 (rat, strain Sprague-Dawley, females, in feed, site: any site (literature study), lesion: several types, types named in the paper, dosed 46 weeks, study length 66 weeks): 5.2 mg/kg/day | TD50 (rat, strain Sprague-Dawley, females, in feed, site: kidney/pelvis, lesion: transitional-cell carcinoma, dosed 46 weeks, study length 66 weeks): 59.6 mg/kg/day | TD50 (rat, strain Sprague-Dawley, females, in feed, site: lung, lesion: alveolar-cell carcinoma, dosed 46 weeks, study length 66 weeks): 59.6 mg/kg/day | TD50 (rat, strain Sprague-Dawley, females, in feed, site: mammary gland, lesion: adenocarcinoma, dosed 46 weeks, study length 66 weeks): 10.3 mg/kg/day | TD50 (rat, strain Sprague-Dawley, females, in feed, site: mammary gland, lesion: several types, types named in the paper, dosed 46 weeks, study length 66 weeks): 6.35 mg/kg/day
